{"source": "patent US20060264418A1", "about": "“6-(2,2,2-Trifluoroethylamino-7-chloro-2,3,4,5-tetrahydro-1h-benzo[d] azephine as a 5-ht2c receptor agonist” (priority 2003, published 2006)", "key": {"male Long-Evans rats": {"system": "male Long-Evans rats", "experiment": "Acute feeding assay with a selective 5-HT2C receptor antagonist", "format": "in vivo, rat", "conditions": "antagonist 3 mg/Kg subcutaneous about 15 min. before oral test compound", "source_text": "Animals: Obtain male Long-Evans rats (Harlan Sprague-Dawley, Indianapolis, Ind.) that are approximately one hundred-days old and have been maintained on a calorie rich diet since weaning (TD 95217, 40% calories from fat; Teklad, Madison, Wis.). House the rats individually with a 12 hr.:12 hr. light:dark cycle (lights on from about 22:00 hr. to about 10:00 hr.) and maintain rats on the same diet (TD 95217) with free access to water, for about 1-2 weeks to acclimate the rats to the environment. Dose rats orally with vehicle (10% acacia with 0.15% saccharin in water) once daily for at least 1 day (typically 1-2 days) to acclimate the rats to the procedures. Randomize the rats into groups so each group has similar mean body weights.\nAcute Feeding Assay with a selective 5-HT2C receptor antagonist: The above calorimetric acute feeding assay is conducted with the following modifications. Open circuit calorimetry systems are not used and only the 24 hr. periodic food intake and body weight are measured. […]"}, "male NIH Swiss mice [1]": {"system": "male NIH Swiss mice", "experiment": "Marble burying assay (with rotorod)", "format": "in vivo, mouse", "source_text": "Marble burying in mice has been used to model anxiety disorders including obsessive-compulsive disorders (OCD) due to ethological study of the behavior (e.g. Gyertyan I. “Analysis of the marble burying response: Marbles serve to measure digging rather than evoke burying”, Behavioural Pharmacology 6: 24-31, (1995)) and due to the pharmacological effects of clinical standards (c.f., Njung′E K. Handley S L. “Evaluation of marble-burying behavior as a model of anxiety”, Pharmacology, Biochemistry & Behavior. 38: 63-67, (1991)); Borsini F., Podhorna J., and Marazziti, D. “Do animal models of anxiety predict anxiolytic effects of antidepressants?”, Psychopharmacology 163: 121-141, (2002)). Thus, drugs used in the treatment of generalized anxiety in humans (e.g. benzodiazepines) as well as compounds used to treat OCD (e.g. SSRIs like fluoxetine) decrease burying.\nHouse experimentally-naïve male, NIH Swiss mice (Harlan Sprague-Dawley, Indianapolis, Ind.) weighing between 28-35 g in groups of 12 for at least three days prior to testing in a vivarium with 12 hr. light and dark cycles. Conduct experiments during the light cycle in a dimly lit experimental testing room. Dose mice with vehicle or compound and, after a specified pretreatment interval (generally 30 min.), place each mouse individually on a rotorod (Ugo Basile 7650) operating at a speed of 6 revolutions/min. and observe for falling. After 2 min. on the rotorod, place the mice individually in a 17×28×12 cm high plastic tub with 5 mm sawdust shavings on the floor that are covered with 20 blue marbles (1.5 cm diameter) placed in the center. After 30 min., count the number of marbles buried (⅔ covered with sawdust). Assess the compound's effect on marble burying with Dunnett's test and the effect on rotorod performance by Fisher's exact test.\nClinically effective standard compounds suppress marble burying at doses that are devoid of motor-impairing effects as measured on the rotorod. […]"}, "male NIH Swiss mice [2]": {"system": "male NIH Swiss mice", "experiment": "Nestlet shredding", "format": "in vivo, mouse", "conditions": "30 min.", "source_text": "Mice naturally will construct nests of material available in their living environment. Since this behavior is obsessive in nature, it has been used to model OCD (Mia Li, Denise Morrow and Jeffrey M. Witkin, “Decreases in nestlet shredding of mice by serotonin uptake inhibitors: comparison with marble burying”, Psychopharmacology, submitted Jul. 14, 2003). House experimentally-naïve male, NIH Swiss mice (Harlan Sprague-Dawley, Indianapolis, Ind.) weighing between 28-35 g in groups of 12 for at least three days prior to testing in a vivarium with a 12 hr. light/dark cycle. Conduct experiments during the light cycle in an experimental room with normal overhead fluorescent lighting. Dose mice with vehicle or test compound and after a specified pretreatment interval (generally 30 min.), place the mice individually in a 17×28×12 cm high plastic tub with about 5 mm sawdust shavings on the floor along with a pre-weighed multi-ply gauze pad (51 mm square). After 30 min., weigh the remainder of the gauze pad not removed by the mouse. Determine the weight of the gauze used for nestlet construction by subtraction. Compare the results for test compound treated mice to the results for vehicle control treated mice with Dunnett's test.\nClinically effective OCD treatment standard compounds suppress nestlet shredding at doses that are devoid of motor-impairing effects as measured by the rotorod test. […]"}}, "data": [{"smiles": "FC(F)(F)CNc1c(Cl)ccc2c1CCNCC2.O=C(O)CCC(=O)O", "note": "[Example 2, 7-Chloro-6-(2,2,2-trifluoroethylamino)-2,3,4,5-tetrahydro-1H-benzo[d]azepine Succinic Acid Salt]", "values": [{"measurement": "effect on 24 hr. food intake after pre-administration of the 5-HT2C receptor antagonist", "setting": "male Long-Evans rats", "value": "blocked"}, {"measurement": "reduction of burying behavior with co-administration of the 5-HT2C antagonist", "setting": "male NIH Swiss mice [1]", "value": "blocked"}, {"measurement": "marble burying behavior (relative to rotorod performance)", "setting": "male NIH Swiss mice [1]; 30 min. burying session", "value": "reduce burying behavior"}, {"measurement": "nestlet shredding (relative to motor effects, rotorod test)", "setting": "male NIH Swiss mice [2]", "value": "suppress nestlet shredding at doses that were devoid of motor-impairing effects"}]}]}
